# Where “and” joins values, the source holds several entries; their conditions need not be identical. Equal values may be shown once.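 Each compound was tested at five concentrations against cells in 96-well plates for 48 hours. At the GI50, growth is halved. TGI: total growth inhibition.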
# How the values were obtained:
# Assay in all cases: DTP human tumour cell line panel, 48 h
# CAKI-1 renal = system: CAKI-1 renal
# K-562 leukemia = system: K-562 leukemia
# KM12 colon = system: KM12 colon
# NCI-H226 lung = system: NCI-H226 lung
# OVCAR-4 ovarian = system: OVCAR-4 ovarian
# PC-3 prostate = system: PC-3 prostate
# SK-OV-3 ovarian = system: SK-OV-3 ovarian
# TK-10 renal = system: TK-10 renal
# UACC-62 melanoma = system: UACC-62 melanoma
# RXF 393 renal = system: RXF 393 renal
Structure (SMILES),TGI (CAKI-1 renal),TGI (K-562 leukemia),TGI (KM12 colon),TGI (NCI-H226 lung),TGI (OVCAR-4 ovarian),TGI (PC-3 prostate),TGI (SK-OV-3 ovarian),TGI (TK-10 renal),TGI (UACC-62 melanoma),TGI (RXF 393 renal),GI50 (CAKI-1 renal),GI50 (K-562 leukemia),GI50 (KM12 colon),GI50 (NCI-H226 lung),GI50 (OVCAR-4 ovarian),GI50 (PC-3 prostate),GI50 (SK-OV-3 ovarian),GI50 (TK-10 renal),GI50 (UACC-62 melanoma),GI50 (RXF 393 renal)
CCCCCCSc1nc(COC(=O)NC)c(COC(=O)NC)n1C,> 100 µM,> 100 µM,> 100 µM,> 100 µM,> 100 µM,> 100 µM,> 100 µM,> 100 µM,> 100 µM,–,–,–,–,–,–,–,–,–,–,–
CC1CC(c2ccc(Cl)c(Cl)c2)=Nc2ccccc2S1 (stereo not drawn),> 100 µM,> 100 µM,> 100 µM,> 100 µM,> 100 µM,–,> 100 µM,> 100 µM,> 100 µM,> 100 µM,–,–,–,–,–,–,–,–,–,–
Cc1cc2c(cc1Cl)N1C(=O)NS(=O)(=O)N=C1NS2(=O)=O,> 100 µM,> 100 µM,> 100 µM,> 100 µM,> 100 µM,> 100 µM,> 100 µM,> 100 µM,> 100 µM,–,> 100 µM,> 100 µM,> 100 µM,> 100 µM,> 100 µM,> 100 µM,> 100 µM,> 100 µM,> 100 µM,–
CCN(CCO)CCCOc1ccc2c(Nc3cc(CC(=O)Nc4cccc(F)c4)[nH]n3)ncnc2c1,> 100 µM,> 78.4 µM,16 µM and > 10 µM,> 100 µM,> 100 µM,> 64.8 µM,> 57.1 µM,> 100 µM,> 59.3 µM,–,> 36.5 µM,8.89 µM,3.45 µM and 0.82 µM,23.8 µM,19.4 µM,17.7 µM,15.6 µM,> 67.8 µM,26.1 µM,–
Cc1ccc2nc3c(C)cc(=O)cc-3sc2c1,37.4 µM,31.5 µM,65.4 µM,> 100 µM,33.6 µM,–,> 100 µM,49.8 µM,29 µM,–,–,–,–,–,–,–,–,–,–,–
NCC1(N2CCOCC2)C2CCCC21CNc1ccccc1 (stereo not drawn),> 100 µM,> 100 µM,> 100 µM,–,> 100 µM,–,–,> 100 µM,> 100 µM,> 100 µM,–,–,–,–,–,–,–,–,–,–
COC(=O)C1(O)c2ccccc2N=C2C1CCN2C (stereo not drawn),> 100 µM,> 100 µM,> 100 µM,–,> 100 µM,–,> 100 µM,> 100 µM,> 100 µM,> 100 µM,–,–,–,–,–,–,–,–,–,–
O=C1CC[C@@H](NC(=O)Cc2ccccc2)C(=O)N1,> 100 µM,> 100 µM,> 100 µM,> 100 µM,> 100 µM,–,> 100 µM,> 100 µM,> 100 µM,–,–,–,–,–,–,–,–,–,–,–
COC(=O)NC(=O)c1cn(C2CCCCC2)c(=O)[nH]c1=O,> 100 µM,> 100 µM,> 100 µM,> 100 µM,> 100 µM,–,> 100 µM,> 100 µM,> 100 µM,> 100 µM,–,–,–,–,–,–,–,–,–,–
COc1cc(NC(C)CCCN2C(=O)c3ccccc3C2=O)c2ncccc2c1OC (stereo not drawn),74.4 µM,> 100 µM,> 100 µM,> 100 µM,> 100 µM,71.1 µM,> 100 µM,> 100 µM,> 100 µM,–,29.5 µM,83.9 µM,29.7 µM,33.3 µM,11.8 µM,24.9 µM,> 100 µM,40.5 µM,35.9 µM,–
O=C(CSc1ncc(-c2ccccc2)n1-c1ccccc1)Nc1ccc(-c2nc3ccccc3s2)cc1,> 100 µM,> 100 µM,–,> 100 µM,–,> 100 µM,> 100 µM,> 100 µM,> 100 µM,47.4 µM,4.21 µM,> 100 µM,–,43.3 µM,–,> 100 µM,55.7 µM,34.4 µM,22.6 µM,11.2 µM
c1ccc2c(c1)N=C(c1ccc3ccccc3c1)CC(c1cccc3ccccc13)S2 (stereo not drawn),> 100 µM,54 µM,> 100 µM,> 100 µM,> 100 µM,–,> 100 µM,> 100 µM,> 100 µM,> 100 µM,–,–,–,–,–,–,–,–,–,–
NC(=O)c1ncn(Cc2ccccc2)c1CNC(N)=S,–,> 100 µM,> 100 µM,> 100 µM,> 100 µM,–,> 100 µM,> 100 µM,> 100 µM,> 100 µM,–,–,–,–,–,–,–,–,–,–
CC1(C)CC(N2CCN(C3CC(C)(C)NC(C)(C)C3)CC2)CC(C)(C)N1,> 100 µM,> 100 µM,> 100 µM,–,> 100 µM,–,> 100 µM,> 100 µM,> 100 µM,> 100 µM,–,–,–,–,–,–,–,–,–,–
O=C1N=C(Nc2nc(-c3csc(NC4=NC(=O)/C(=C\c5ccc(Cl)cc5)S4)n3)cs2)S/C1=C/c1ccc(Cl)cc1,> 50 µM,> 50 µM,35.6 µM,22.3 µM,–,49 µM,–,25.6 µM,16.4 µM,> 50 µM,20 µM,7.23 µM,10.1 µM,3.79 µM,–,8.78 µM,–,8.44 µM,6.03 µM,11.6 µM
Cc1ccc(NC(=O)C(=O)CC(=O)c2ccccc2)cc1C,> 100 µM,–,> 100 µM,> 100 µM,> 100 µM,–,> 100 µM,> 100 µM,> 100 µM,> 100 µM,–,–,–,–,–,–,–,–,–,–
COC(=O)C1(C)CCCC2(C)c3cc(OC)ccc3C(=O)C(Br)C12 (stereo not drawn),> 10 µM,> 10 µM,> 10 µM,> 10 µM,–,> 10 µM,> 10 µM,> 10 µM,> 10 µM,> 10 µM,–,–,–,–,–,–,–,–,–,–
O=C(/C=C/c1ccccc1)OCC1=C[C@@H](O)[C@@H]2C=CO[C@@H](OC3OC(CO)C(O)C(O)C3O)[C@H]12 (stereo partly drawn),> 100 µM,–,> 100 µM,> 100 µM,> 100 µM,> 100 µM,> 100 µM,> 100 µM,> 100 µM,> 100 µM,–,–,–,–,–,–,–,–,–,–
O=C1c2ccccc2C(=O)c2c1ccc1c2N=C(c2ccc(Br)cc2)CC(c2cccc3ccccc23)N1 (stereo not drawn),> 100 µM,> 100 µM,> 100 µM,> 100 µM,> 100 µM,–,> 100 µM,> 100 µM,> 100 µM,> 100 µM,–,–,–,–,–,–,–,–,–,–
O=C(NC1C(=O)NNC1c1ccccc1Cl)c1ccccc1 (stereo not drawn),> 100 µM,> 100 µM,> 100 µM,> 100 µM,> 100 µM,–,> 100 µM,> 100 µM,> 100 µM,> 100 µM,–,–,–,–,–,–,–,–,–,–

# Source: PubChem BioAssay (NCI)
